The supplement of paper PMC10307832

How the values were obtained:
Test in all cases: relative viability (nuclei count vs DMSO), 5 days (fraction); higher = more cells survive
ALW-II-49-7 + Tozasertib = compound: Cc1ccc(C(=O)Nc2cccc(C(F)(F)F)c2)cc1Nc1cncc(C(N)=O)c1 [ALW-II-49-7] + Cc1cc(Nc2cc(N3CCN(C)CC3)nc(Sc3ccc(NC(=O)C4CC4)cc3)n2)n[nH]1 [Tozasertib] (partner 0.1 µM)
Outline: (§1)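 Lung cancer cell lines were seeded in 1536-well plates and dosed by pin tool the next day, with either a single drug or a fixed anchor-drug dose combined with five library-drug doses (not always all listed) spaced in √10 steps. Five days later, one step fixed the cells and stained their nuclei (final 0.05% Triton X-100, 1% formaldehyde, 1 ug/ml Hoechst), and nuclei were counted on 4× images. Relative viability is the nuclei count in treated wells divided by the count in vehicle wells, and each value is the median of duplicate plates.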

Dasatinib + Palbociclib = compound: Cc1nc(Nc2ncc(C(=O)Nc3c(C)cccc3Cl)s2)cc(N2CCN(CCO)CC2)n1 [Dasatinib] + CC(=O)c1c(C)c2cnc(Nc3ccc(N4CCNCC4)cn3)nc2n(C2CCCC2)c1=O [Palbociclib] (partner 0.5 µM)
Outline: as §1

XMD13-2 + Decitabine = compound: C1CC1C(=O)NC2=NNC3=C2C=CC(=C3)C4=CC(=CC=C4)C(=O)NC5CC5 [XMD13-2] + Nc1ncn([C@H]2C[C@H](O)[C@@H](CO)O2)c(=O)n1 [Decitabine] (partner 2 µM)
Outline: as §1

XMD13-2 + Pemetrexed = compound: C1CC1C(=O)NC2=NNC3=C2C=CC(=C3)C4=CC(=CC=C4)C(=O)NC5CC5 [XMD13-2] + Nc1nc2[nH]cc(CCc3ccc(C(=O)N[C@@H](CCC(=O)O)C(=O)O)cc3)c2c(=O)[nH]1 [Pemetrexed] (partner 0.2 µM)
Outline: as §1

Row | Cell Line | relative viability (ALW-II-49-7 + Tozasertib; first compound 0.08 µM) | relative viability (ALW-II-49-7 + Tozasertib; first compound 0.253 µM) | relative viability (ALW-II-49-7 + Tozasertib; first compound 0.8 µM) | relative viability (ALW-II-49-7 + Tozasertib; first compound 2.53 µM) | relative viability (ALW-II-49-7 + Tozasertib; first compound 8 µM) | relative viability (Dasatinib + Palbociclib; first compound 0.005 µM) | relative viability (Dasatinib + Palbociclib; first compound 0.01581 µM) | relative viability (Dasatinib + Palbociclib; first compound 0.05 µM) | relative viability (Dasatinib + Palbociclib; first compound 0.1581 µM) | relative viability (Dasatinib + Palbociclib; first compound 0.5 µM) | relative viability (XMD13-2 + Decitabine; first compound 0.05 µM) | relative viability (XMD13-2 + Decitabine; first compound 0.1581 µM) | relative viability (XMD13-2 + Decitabine; first compound 0.5 µM) | relative viability (XMD13-2 + Decitabine; first compound 1.581 µM) | relative viability (XMD13-2 + Decitabine; first compound 5 µM) | relative viability (XMD13-2 + Pemetrexed; first compound 0.05 µM) | relative viability (XMD13-2 + Pemetrexed; first compound 0.1581 µM) | relative viability (XMD13-2 + Pemetrexed; first compound 0.5 µM) | relative viability (XMD13-2 + Pemetrexed; first compound 1.581 µM) | relative viability (XMD13-2 + Pemetrexed; first compound 5 µM)
1 | HCC-827 | 0.427 | 0.449 | 0.4 | 0.397 | 0.415 | 0.438 | 0.458 | 0.419 | 0.135 | 0.114 | 0.317 | 0.365 | 0.281 | 0.719 | 0.343 | 0.264 | 0.27 | 0.211 | 0.272 | 0.261
2 | HOP-62 | 0.278 | 0.341 | 0.368 | 0.358 | 0.289 | 0.391 | 0.381 | 0.506 | 0.431 | 0.182 | 0.233 | 0.204 | 0.195 | 0.203 | 0.199 | 0.264 | 0.339 | 0.299 | 0.285 | 0.278
3 | LC-2-ad | 0.405 | 0.428 | 0.431 | 0.209 | 0.434 | 0.515 | 0.471 | 0.477 | 0.299 | 0.159 | 0.797 | 0.728 | 0.828 | 0.79 | 0.712 | 0.285 | 0.26 | 0.282 | 0.303 | 0.256
4 | LCLC-97TM1 | 0.151 | 0.188 | 0.192 | 0.168 | 0.18 | 0.203 | 0.227 | 0.246 | 0.2 | 0.13 | 0.241 | 0.23 | 0.202 | 0.168 | 0.195 | 0.178 | 0.155 | 0.166 | 0.185 | 0.159
5 | LCLC-103H | 0.451 | 0.453 | 0.486 | 0.451 | 0.389 | 0.506 | 0.47 | 0.452 | 0.453 | 0.404 | 0.712 | 0.748 | 0.765 | 0.719 | 0.756 | 0.421 | 0.473 | 0.471 | 0.483 | 0.461
6 | LK-2 |  | 0.191 | 0.2 | 0.175 | 0.151 | 0.583 |  | 0.41 | 0.217 | 0.223 | 0.378 | 0.297 | 0.274 | 0.281 | 0.329 | 0.297 | 0.284 | 0.266 | 0.291 | 0.393
7 | LOU-NH91 | 0.622 | 0.468 | 0.633 | 0.631 | 0.575 | 0.569 | 0.51 | 0.553 | 0.498 | 0.369 | 0.815 | 0.844 | 0.802 | 0.837 | 0.882 | 0.319 | 0.409 | 0.392 | 0.435 | 0.371
8 | LU99A | 0.273 | 0.29 | 0.252 | 0.269 | 0.249 | 0.354 | 0.379 | 0.379 | 0.308 | 0.2 | 0.97 | 0.881 | 0.945 | 0.857 | 0.808 | 0.208 | 0.203 | 0.189 | 0.213 | 0.187
9 | LXF-289 | 0.187 | 0.194 | 0.168 | 0.184 | 0.182 | 0.603 | 0.676 | 0.672 | 0.384 | 0.118 | 0.38 | 0.377 | 0.402 | 0.399 | 0.379 | 0.92 | 0.952 | 0.892 | 0.964 | 0.952
10 | NCI-H23 | 0.308 | 0.553 | 0.337 | 0.404 | 0.363 | 0.536 | 0.476 | 0.38 | 0.34 | 0.271 | 0.271 | 0.335 | 0.329 | 0.33 | 0.301 | 0.829 | 0.569 | 0.747 | 0.656 | 0.799
11 | NCI-H322M | 0.436 | 0.484 | 0.476 | 0.411 | 0.367 | 0.435 | 0.382 | 0.365 | 0.326 | 0.228 | 0.73 | 0.718 | 0.791 |  | 0.742 | 0.659 | 0.614 | 0.579 |  | 0.608
12 | NCI-H358 | 0.0887 | 0.107 | 0.11 | 0.0927 | 0.085 | 0.144 | 0.129 | 0.101 | 0.0794 | 0.0791 | 0.248 | 0.212 | 0.22 | 0.216 | 0.18 | 0.171 | 0.168 | 0.175 | 0.179 | 0.166
13 | NCI-H596 | 1.02 | 0.939 | 0.92 | 0.782 | 1.14 |  |  |  |  |  | 0.934 | 1.02 | 1 | 1.03 | 1.29 | 0.478 | 0.454 | 0.518 | 0.456 | 0.492
14 | NCI-H727 | 0.599 | 0.647 | 0.642 | 0.687 | 0.538 | 0.553 | 0.455 | 0.523 | 0.388 | 0.281 | 1.02 | 0.783 | 0.914 | 0.841 | 1 |  |  |  |  | 
15 | NCI-H1563 |  |  |  |  |  |  |  |  |  |  |  |  |  |  |  | 0.76 | 0.806 | 0.741 | 0.75 | 0.913
16 | NCI-H1623 | 0.339 | 0.402 | 0.395 | 0.396 | 0.579 |  |  |  |  |  |  |  |  |  |  |  |  |  |  | 
17 | NCI-H1792 |  |  |  |  |  | 0.685 | 0.639 | 0.566 | 0.429 | 0.271 | 0.625 | 0.507 | 0.581 | 0.551 | 0.48 | 1.16 | 0.694 | 0.922 | 0.75 | 1.14
18 | NCI-H2228 | 0.261 | 0.263 | 0.277 | 0.171 | 0.22 | 0.73 | 0.611 | 0.652 | 0.364 | 0.367 |  |  |  |  |  | 0.354 | 0.315 | 0.339 | 0.31 | 0.27
